According to patent US8722704B2, “Modulators of ATP-binding cassette-transporters” (Vertex Pharmaceuticals Incorporated, priority 2007, dated 2014):

What follows are molecules tested against T1, ΔF508-CFTR (Homo sapiens, UniProt P13569, DEL508-508) (assay: Assays for detecting and measuring ΔF508-CFTR correction properties (membrane potential optical assay; Table 3 does not say which assay)). Settings: IC50/EC50 bins; NIH3T3 mouse fibroblasts stably expressing ΔF508-CFTR; read-out: Binned EC50.
T1 construct: expressed in transfected cells
Assay type: cell-based
From the text: The optical membrane potential assay utilized voltage-sensitive FRET sensors described by Gonzalez and Tsien (See Gonzalez, J. E. and R. Y. Tsien (1995) “Voltage sensing by fluorescence resonance energy transfer in single cells” Biophys J 69(4): 1272-80, and Gonzalez, J. E. and R. Y. Tsien (1997) “Improved indicators of cell membrane potential that use fluorescence resonance energy transfer” Chem Biol 4(4): 269-77) in combination with instrumentation for measuring fluorescence changes such as the Voltage/Ion Probe Reader (VIPR) (See Gonzalez, J. E., K. Oades, et al. (1999) “Cell-based assays and instrumentation for screening ion-channel targets” Drug Discov Today 4(9): 431-439).
These voltage sensitive assays are based on the change in fluorescence resonant energy transfer (FRET) between the membrane-soluble, voltage-sensitive dye, DiSBAC2(3), and a fluorescent phospholipid, CC2-DMPE, which is attached to the outer leaflet of the plasma membrane and acts as a FRET donor. Changes in membrane potential (Vm) cause the negatively charged DiSBAC2(3) to redistribute across the plasma membrane and the amount of energy transfer from CC2-DMPE changes accordingly. The changes in fluorescence emission were monitored using VIPR™ II, which is an integrated liquid handler and fluorescent detector designed to conduct cell-based screens in 96- or 384-well microtiter plates.
To identify small molecules that correct the trafficking defect associated with ΔF508-CFTR; a single-addition HTS assay format was developed. The cells were incubated in serum-free medium for 16 hrs at 37° C. in the presence or absence (negative control) of test compound. As a positive control, cells plated in 384-well plates were incubated for 16 hrs at 27° C. to “temperature-correct” ΔF508-CFTR. The cells were subsequently rinsed 3× with Krebs Ringers solution and loaded with the voltage-sensitive dyes. To activate ΔF508-CFTR, 10 μM forskolin and the CFTR potentiator, genistein (20 μM), were added along with Cl^−-free medium to each well. The addition of Cl^−-free medium promoted Cl^− efflux in response to ΔF508-CFTR activation and the resulting membrane depolarization was optically monitored using the FRET-based voltage-sensor dyes. […]
3. Solutions • Bath Solution #1: (in mM) NaCl 160, KCl 4.5, CaCl2 2, MgCl2 1, HEPES 10, pH 7.4 with NaOH. • Chloride-free bath solution: Chloride salts in Bath Solution #1 are substituted with gluconate salts. • CC2-DMPE: Prepared as a 10 mM stock solution in DMSO and stored at −20° C. • DiSBAC2(3): Prepared as a 10 mM stock in DMSO and stored at −20° C.
NIH3T3 mouse fibroblasts stably expressing ΔF508-CFTR are used for optical measurements of membrane potential. The cells are maintained at 37° C. in 5% CO2 and 90% humidity in Dulbecco's modified Eagle's medium supplemented with 2 mM glutamine, 10% fetal bovine serum, 1×NEAA, β-ME, 1×pen/strep, and 25 mM HEPES in 175 cm^2 culture flasks. For all optical assays, the cells were seeded at 30,000/well in 384-well matrigel-coated plates and cultured for 2 hrs at 37° C. before culturing at 27° C. for 24 hrs for the potentiator assay. For the correction assays, the cells are cultured at 27° C. or 37° C. with and without compounds for 16-24 hours.

T1 sequence (P13569 with tags, fused parts or gaps DEL508-508): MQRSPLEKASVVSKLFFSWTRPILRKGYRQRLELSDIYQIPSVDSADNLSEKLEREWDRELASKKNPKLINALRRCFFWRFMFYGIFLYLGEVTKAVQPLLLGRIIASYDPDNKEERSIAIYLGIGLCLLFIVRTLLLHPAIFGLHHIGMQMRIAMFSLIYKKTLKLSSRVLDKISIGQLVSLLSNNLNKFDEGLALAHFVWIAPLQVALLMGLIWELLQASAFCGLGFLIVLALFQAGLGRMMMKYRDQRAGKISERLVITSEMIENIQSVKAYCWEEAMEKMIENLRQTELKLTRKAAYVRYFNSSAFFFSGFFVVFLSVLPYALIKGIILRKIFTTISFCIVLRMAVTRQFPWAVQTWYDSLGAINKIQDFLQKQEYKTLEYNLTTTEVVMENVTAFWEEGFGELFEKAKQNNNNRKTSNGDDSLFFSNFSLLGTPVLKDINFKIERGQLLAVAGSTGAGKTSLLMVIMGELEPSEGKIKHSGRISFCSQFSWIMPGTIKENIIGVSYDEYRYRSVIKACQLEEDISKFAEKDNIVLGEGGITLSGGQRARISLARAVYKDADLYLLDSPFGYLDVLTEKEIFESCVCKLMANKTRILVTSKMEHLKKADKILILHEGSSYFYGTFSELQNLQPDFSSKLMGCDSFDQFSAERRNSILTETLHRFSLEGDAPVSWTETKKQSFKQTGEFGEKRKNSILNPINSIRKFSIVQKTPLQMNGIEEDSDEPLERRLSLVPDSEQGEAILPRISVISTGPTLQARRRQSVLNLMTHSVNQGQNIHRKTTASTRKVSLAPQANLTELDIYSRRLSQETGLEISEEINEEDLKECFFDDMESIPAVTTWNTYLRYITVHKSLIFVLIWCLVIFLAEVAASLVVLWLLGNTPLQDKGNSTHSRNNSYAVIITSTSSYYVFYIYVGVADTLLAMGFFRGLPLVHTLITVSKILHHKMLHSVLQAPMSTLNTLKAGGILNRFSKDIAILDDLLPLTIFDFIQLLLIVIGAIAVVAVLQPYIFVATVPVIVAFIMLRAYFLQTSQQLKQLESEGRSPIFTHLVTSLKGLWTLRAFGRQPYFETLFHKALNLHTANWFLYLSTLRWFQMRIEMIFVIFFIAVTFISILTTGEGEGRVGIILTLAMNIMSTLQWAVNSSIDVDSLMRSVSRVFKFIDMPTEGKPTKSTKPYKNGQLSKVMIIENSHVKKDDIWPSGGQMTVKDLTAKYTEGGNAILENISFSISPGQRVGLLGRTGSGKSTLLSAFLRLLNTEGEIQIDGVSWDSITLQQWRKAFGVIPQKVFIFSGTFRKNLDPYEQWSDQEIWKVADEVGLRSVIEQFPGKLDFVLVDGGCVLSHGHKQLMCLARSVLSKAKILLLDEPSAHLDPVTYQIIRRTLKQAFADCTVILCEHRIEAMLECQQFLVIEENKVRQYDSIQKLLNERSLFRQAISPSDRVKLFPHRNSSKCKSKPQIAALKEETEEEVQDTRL

EC50 [nM]	SMILES
> 5000	CS(=O)(=O)NCc1ccc(-c2nc(NC(=O)C3(c4ccc5c(c4)OC(F)(F)O5)CC3)cc3ccccc23)cc1 [Compound 1, 1-(2,2-Difluorobenzo[d][1,3]dioxol-5-yl)-N-(1-(4-(methylsulfonamidomethyl)phenyl)isoquinolin-3-yl)cyclopropanecarboxamide]
≤ 2000	O=C(Nc1cc2ccccc2c(-c2ccc3[nH]ncc3c2)n1)C1(c2ccc3c(c2)OC(F)(F)O3)CC1 [Compound 2, N-(1-(1H-Indazol-5-yl)isoquinolin-3-yl)-1-(2,2-difluorobenzo[d][1,3]dioxol-5-yl)cyclopropanecarboxamide]
≤ 2000	CC(=O)NCc1ccc(-c2nc(NC(=O)C3(c4ccc5c(c4)OC(F)(F)O5)CC3)cc3ccccc23)cc1 [Compound 3, N-(1-(4-(Acetamidomethyl)phenyl)isoquinolin-3-yl)-1-(2,2-difluorobenzo[d][1,3]dioxol-5-yl)cyclopropanecarboxamide]
≤ 2000	O=C(O)c1ccc(-c2nc(NC(=O)C3(c4ccc5c(c4)OC(F)(F)O5)CC3)cc3ccccc23)cc1 [Compound 5]
≤ 2000	NC(=O)c1ccc(-c2nc(NC(=O)C3(c4ccc5c(c4)OC(F)(F)O5)CC3)cc3ccccc23)cc1 [Compound 6, 4-(3-(1-(2,2-Difluorobenzo[d][1,3]dioxol-5-yl)cyclopropanecarboxamido)isoquinolin-1-yl)benzamide]
≤ 2000	CC(=O)NCc1cccc(-c2nc(NC(=O)C3(c4ccc5c(c4)OC(F)(F)O5)CC3)cc3ccccc23)c1 [Compound 10, N-(1-(3-(Acetamidomethyl)phenyl)isoquinolin-3-yl)-1-(2,2-difluorobenzo[d][1,3]dioxol-5-yl)cyclopropanecarboxamide]
≤ 2000	NS(=O)(=O)c1ccc(-c2nc(NC(=O)C3(c4ccc5c(c4)OC(F)(F)O5)CC3)cc3ccccc23)cc1 [Compound 11, 1-(2,2-Difluorobenzo[d][1,3]dioxol-5-yl)-N-(1-(4-sulfamoylphenyl)isoquinolin-3-yl)cyclopropanecarboxamide]
≤ 2000	NS(=O)(=O)c1cccc(-c2nc(NC(=O)C3(c4ccc5c(c4)OC(F)(F)O5)CC3)cc3ccccc23)c1 [Compound 13, 1-(2,2-Difluorobenzo[d][1,3]dioxol-5-yl)-N-(1-(3-sulfamoylphenyl)isoquinolin-3-yl)cyclopropanecarboxamide]

The remaining lines, values behind:

SMILES	EC50 [nM]
O=C(Nc1cc2ccccc2c(-c2ccccc2)n1)C1(c2ccc3c(c2)OC(F)(F)O3)CC1 [Compound 4, 1-(2,2-difluorobenzo[d][1,3]dioxol-5-yl)-N-(1-phenylisoquinolin-3-yl)cyclopropanecarboxamide]	≤ 2000
Cc1cc2cc(-c3nc(NC(=O)C4(c5ccc6c(c5)OC(F)(F)O6)CC4)cc4ccccc34)ccc2[nH]1 [Compound 7, 1-(2,2-difluorobenzo[d][1,3]dioxol-5-yl)-N-(1-(2-methyl-1H-indol-5-yl)isoquinolin-3-yl)cyclopropanecarboxamide]	≤ 2000
O=C(O)c1cccc(-c2nc(NC(=O)C3(c4ccc5c(c4)OC(F)(F)O5)CC3)cc3ccccc23)c1 [Compound 8]	≤ 2000
CS(=O)(=O)NCc1cccc(-c2nc(NC(=O)C3(c4ccc5c(c4)OC(F)(F)O5)CC3)cc3ccccc23)c1 [Compound 9, 1-(2,2-Difluorobenzo[d][1,3]dioxol-5-yl)-N-(1-(3-(methylsulfonamidomethyl)phenyl)isoquinolin-3-yl)cyclopropanecarboxamide]	≤ 2000
COc1ccc(C2(C(=O)Nc3cc4ccccc4c(N4CCN(C)CC4)n3)CC2)cc1 [Compound 12]	≤ 2000
COc1ccc(C2(C(=O)Nc3cc4ccccc4c(N4CCN(c5ccccc5)C(=O)C4)n3)CC2)cc1 [Compound 14, 1-(4-methoxyphenyl)-N-(1-(3-oxo-4-phenylpiperazin-1-yl)isoquinolin-3-yl)cyclopropanecarboxamide]	≤ 2000
